According to ChEMBL document CHEMBL2074025 (AIDS, 2002):
One block for each molecule: values may come before it.

Legend:
Assay type in all cases: functional, cell-based
[1] = target: T1, Multidrug resistance-associated protein 1 (Homo sapiens, UniProt P33527); assay: TP_TRANSPORTER: inhibition of Calcein efflux (Calcein: 0.05 micro;M, Amprenavir: 0.02 uM) in UMCC-1/VP cells
[2] = target: T1, Multidrug resistance-associated protein 1; assay: TP_TRANSPORTER: inhibition of Calcein efflux (Calcein: 0.05 micro;M, Indinavir: 0.114 uM) in UMCC-1/VP cells
[3] = target: T1, Multidrug resistance-associated protein 1; assay: TP_TRANSPORTER: inhibition of Calcein efflux (Calcein: 0.05 micro;M, Lamivudine: 0.55 uM) in UMCC-1/VP cells
[4] = target: T1, Multidrug resistance-associated protein 1; assay: TP_TRANSPORTER: inhibition of Calcein efflux (Calcein: 0.05 micro;M, Zidovudine: 0.02 uM) in UMCC-1/VP cells

T1 sequence (P33527 whole entry): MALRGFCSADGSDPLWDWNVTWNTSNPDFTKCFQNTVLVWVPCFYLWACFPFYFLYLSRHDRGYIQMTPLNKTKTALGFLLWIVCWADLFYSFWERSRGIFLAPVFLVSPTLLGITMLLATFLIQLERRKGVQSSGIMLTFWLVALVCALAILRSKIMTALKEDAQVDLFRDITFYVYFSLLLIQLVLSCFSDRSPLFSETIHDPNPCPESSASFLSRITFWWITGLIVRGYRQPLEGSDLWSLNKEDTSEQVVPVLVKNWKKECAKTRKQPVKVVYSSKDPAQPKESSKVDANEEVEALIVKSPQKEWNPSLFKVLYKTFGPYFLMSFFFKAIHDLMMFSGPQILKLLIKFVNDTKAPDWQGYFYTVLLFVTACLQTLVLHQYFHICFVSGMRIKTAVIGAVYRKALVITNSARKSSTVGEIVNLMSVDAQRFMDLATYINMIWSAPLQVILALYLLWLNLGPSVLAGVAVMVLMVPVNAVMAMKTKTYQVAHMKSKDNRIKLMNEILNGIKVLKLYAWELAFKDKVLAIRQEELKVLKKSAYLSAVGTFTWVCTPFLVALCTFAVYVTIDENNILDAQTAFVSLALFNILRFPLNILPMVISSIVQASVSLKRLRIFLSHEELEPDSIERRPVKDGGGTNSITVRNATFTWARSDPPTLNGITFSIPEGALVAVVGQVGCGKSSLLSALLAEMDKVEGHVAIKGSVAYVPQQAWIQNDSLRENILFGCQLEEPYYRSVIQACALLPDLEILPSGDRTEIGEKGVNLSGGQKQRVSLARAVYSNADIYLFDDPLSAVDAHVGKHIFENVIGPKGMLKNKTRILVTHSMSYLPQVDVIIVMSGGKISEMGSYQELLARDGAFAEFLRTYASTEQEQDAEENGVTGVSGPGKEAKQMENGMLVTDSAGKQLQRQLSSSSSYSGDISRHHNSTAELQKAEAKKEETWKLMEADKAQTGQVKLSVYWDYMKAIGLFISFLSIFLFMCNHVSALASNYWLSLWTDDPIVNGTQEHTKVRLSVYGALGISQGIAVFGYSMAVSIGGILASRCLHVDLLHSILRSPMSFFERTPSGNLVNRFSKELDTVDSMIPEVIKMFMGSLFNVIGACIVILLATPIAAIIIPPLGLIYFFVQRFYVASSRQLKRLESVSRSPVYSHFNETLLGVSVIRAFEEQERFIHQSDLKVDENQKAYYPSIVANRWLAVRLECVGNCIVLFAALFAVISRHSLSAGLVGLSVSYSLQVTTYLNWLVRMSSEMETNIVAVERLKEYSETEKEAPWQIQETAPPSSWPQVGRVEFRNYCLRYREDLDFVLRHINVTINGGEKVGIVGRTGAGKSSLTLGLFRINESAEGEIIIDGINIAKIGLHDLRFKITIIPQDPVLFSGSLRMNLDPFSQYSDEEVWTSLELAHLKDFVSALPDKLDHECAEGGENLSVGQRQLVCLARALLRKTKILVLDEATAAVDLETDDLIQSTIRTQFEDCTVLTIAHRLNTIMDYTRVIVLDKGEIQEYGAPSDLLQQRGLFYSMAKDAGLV

Activity [1]: is not an inhibitor [-]
SMILES: CC(C)CN(C[C@@H](O)[C@H](Cc1ccccc1)NC(=O)O[C@H]1CCOC1)S(=O)(=O)c1ccc(N)cc1

Activity [2]: is not an inhibitor [-]
SMILES: CC(C)(C)NC(=O)[C@@H]1CN(Cc2cccnc2)CCN1C[C@@H](O)C[C@@H](Cc1ccccc1)C(=O)N[C@H]1c2ccccc2C[C@H]1O.O

Activity [3]: is not an inhibitor [-]
SMILES: Nc1ccn([C@@H]2CS[C@H](CO)O2)c(=O)n1 [LAMIVUDINE]

Activity [4]: is not an inhibitor [-]
SMILES: Cc1cn([C@H]2C[C@H](N=[N+]=[N-])[C@@H](CO)O2)c(=O)[nH]c1=O [ZIDOVUDINE]
